Experimental data reported in patent US6011052A, “Pyrazolone derivatives as MCP-1 antagonists” (Warner-Lambert Company, priority 1997, dated 2000).

How the values were obtained:
[1] = tested on: CD3-Blast (MCP-1 mediated chemotaxis); assay: MCP-1 mediated CD3-Blast chemotaxis assay (transendothelial migration over ECV304 cells); assay type: cell-based; settings: Homo sapiens, ECV-304; for inhibition at 10 µM: range given for multiple replications
Procedure: Recombinant human MCP-1 was obtained from Peprotech (Rockey Hill, N.J.). […] RBCs were removed by hypotonic lysis. […] The cells are expanded and cultured for up to 3 weeks. […] The endothelial cells used for this assay were the endothelial cell line ECV304, obtained from the ECACE (Porton Downs, UK). Endothelial cells were cultured on 6.5 mm diameter Transwell culture inserts (Costar) with a […] pore size. […] Twenty four hours before the assay, 2×10^5 ECV304 cells were plated onto each innert of the 24 well chemotaxis plate and incubated at 37° C. MCP-1 (diluted in assay medium) with or without compounds, was added to the 24-well tissue culture plates in a final volume of […]. […] The cells that had migrated to the bottom chamber were enumerated using flow cytommetry. […] of the cell suspension from the lower chamber was placed in a tube, and relative cell counts were obtained by acquiring events for a set time period of 30 seconds. […] Background migration was determined by counting cells that migrated in the absence of MCP-1 in the lower chamber. This background migration of cells per 30 second count was substrated from the migration to MCP-1 to obtain specific migration. The percent inhibition by compounds of directed migration was determined by the following formula: 1 minus the specific migration in the presence of MCP-1 and compound, divided by the specific migration in the presence of just MCP-1. [drawing 13]

[2] = target: T1, MCP-1 receptor (Homo sapiens, UniProt P41597); assay: MCP-1 binding assay (125I-labeled MCP-1, THP-1 cell membranes); settings: for IC50: THP-1 membranes, 0.2 nM 125I-MCP-1, 30 minutes at room temperature, read-out: Inhibition of MCP-1 Binding IC50; for inhibition at 10 µM: printed in the IC50 μM column, read-out: Inhibition of MCP-1 Binding, percent @ 10 μM
T1 construct: endogenous in cells; host or cells: THP-1 cells (ATCC TIB 202), selected for increased MCP-1 receptor expression
T1 sequence (P41597 1-360 isoform P41597-2): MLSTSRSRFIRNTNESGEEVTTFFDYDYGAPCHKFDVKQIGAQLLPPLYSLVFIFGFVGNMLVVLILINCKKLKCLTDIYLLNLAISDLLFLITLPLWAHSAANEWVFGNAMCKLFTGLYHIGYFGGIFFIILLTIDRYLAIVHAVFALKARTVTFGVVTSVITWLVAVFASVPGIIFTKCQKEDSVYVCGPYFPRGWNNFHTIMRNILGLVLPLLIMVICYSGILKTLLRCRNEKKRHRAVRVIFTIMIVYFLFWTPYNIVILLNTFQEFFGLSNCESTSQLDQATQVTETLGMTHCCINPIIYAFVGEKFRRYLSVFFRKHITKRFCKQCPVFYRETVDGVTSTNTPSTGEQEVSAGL
Procedure: Membranes used in the MCP-1 binding assay were prepared from THP-1 cells (human monocytic cell line source--American Type Culture Collection, Tumor Immunology Bank #202, Rockville, Md., accession no. ATCC TIB 202) selected for increased levels of expression of the MCP-1 receptor. Cells were harvested by centrifugation and washed twice in ice-cold PBS (phosphate-buffered saline) and the cell pellet was frozen at -80° C. in some cases. Cells were resuspended in ice-cold lysis buffer 5 mM HEPES (2-(4N-[2-hydroxyethyl] piperazin-1-yl)-N'-(2-ethanesulfonic acid), pH 7.5, 2 mM EDTA (ethylenediaminetetraacetic acid), 5 ug/ml each leupeptin, aprotinin, chymostatin (protease inhibitors), and 100 ug/ml PMSF (phenylmethane sulfonyl fluoride--also a protease inhibitor)) at a concentration of 5×10^7 cells/ml. The cell suspension was dounced 10-15 times using the B pestle (small pestle of tissue grinder--clearance is 0.07 mm; source--Fisher Scientific) on ice. Nuclei and debris were removed by centrifugation at 500-1000×g for 10 minutes at 4° C. The supernatant was transferred to a fresh tube and centrifuged at 25,000×g for 30 minutes at 4° C. The supernatant was aspirated and the pellet was resuspended in freezing buffer (10 mM HEPES, pH 7.5, 300 mM sucrose, 1 ug/ml each leupeptin, aprotinin, chymostatin, and 10 ug/ml PMSF) using a minihomogenizer until all clumps were resolved. Membranes were aliquoted and frozen at minus 70-85° C. until needed. Typical binding assays used 10-20 ug/well of total membrane protein as determined with a standard protein assay (e.g. BioRad, Richmond, Calif.) or: as determined with a Bradford protein assay (e.g. BioRad, Richmond, Calif.).
For binding, different amounts of membranes were included in the binding reaction along with 0.2 nM I^125 -labeled MCP-1 (Amersham, Arlington Heights, Ill.) with or without unlabeled cold competitor MCP-1 (Peprotech, Rocky Hill, N.J.) (at 500 nM). Binding reactions were performed in a final volume of 100 ul in a binding buffer containing 10 mM HEPES, pH 7.2, 1 mM CaCl2, 5 mM MgCl2, 0.5% BSA (bovine serum albumin). After 30 minutes at room temperature, the binding reactions were filtered through GF/C filters (Whatman glass fiber filters, Type C) or GF/B unifilter plates (Parkard) which had been pre-soaked with 0.3% poly ethyleneimine and washed twice with binding buffer containing 0.5 M NaCl. Filters were dried and counted in a Beta-Plate scintillation counter using standard scintillation fluid. Final concentration of compound in the binding assay ranged from 0.05-100 μM. Compounds were dissolved in DMSO (dimethyl sulfoxide). Final concentrations of DMSO in the binding were kept constant at 0.05%.
IC50s were calculated using a 3-parameter logistic fit. Negative control contained same amount of DMSO vehicle asused in wells containing compound. Positive control contained 500 nM cold competitor MCP-1 in DMSO vehicle.

[3] = tested on: rat T cells, skin DHR sites; assay: T cell recruitment at sites of cutaneous delayed hypersensitivity (DHR) to KLH in rats; assay type: in vivo, rat (Lewis); settings: 24 hours
Procedure: Inbred, approximately 200 gm, male Lewis rats were used in all experiments. Cutaneous delayed hypersensitivity (DHR) was induced as previously described (1). Briefly, rats were sensitized to KLH (keyhole limpet hemocyanis) (Sigma Chemical Co., St. Louis, Mo.) by administering 50 μg KLH in 0.1 ml complete Freund's adjuvant (CFA; Sigma Chemical Co.) into each of 4 subcutaneous sites. After 14 days, DHR was elicited by the challenge of 5 μg KLH in PBS into multiple intradermal sites on the back. Analysis was performed 24 hours after antigen challenge. For each experiment, there were at least three groups of animals of at least four animals in each group. […]
T cell recruitment at sites of DHR was quantified using methods previously described (1-4). […] The cells in the effluent were highly purified (>95%) rat T cells as assessed by anti-rat CD3 (monoclonal antibody KT3, Biosource International, Camarillo, Calif.) immunoreactivity by flow cytometry. […] Skin challenge sites (8 mm in diameter) were counted on a γ counter 24 hours after injection of radiolabeled T cells. Lung, liver, and spleen were also collected and counted as comparative indices for evaluation of input.
Statistical significance was determined using a paired student's t-test. […]

[4] = tested on: skin DHR sites; assay: Histologic analysis of skin DHR sites in rats; assay type: in vivo, rat (Lewis); settings: 15 mg/kg per os, compared to sensitized animals given vehicle alone
Procedure: Inbred, approximately 200 gm, male Lewis rats were used in all experiments. Cutaneous delayed hypersensitivity (DHR) was induced as previously described (1). Briefly, rats were sensitized to KLH (keyhole limpet hemocyanis) (Sigma Chemical Co., St. Louis, Mo.) by administering 50 μg KLH in 0.1 ml complete Freund's adjuvant (CFA; Sigma Chemical Co.) into each of 4 subcutaneous sites. After 14 days, DHR was elicited by the challenge of 5 μg KLH in PBS into multiple intradermal sites on the back. Analysis was performed 24 hours after antigen challenge. For each experiment, there were at least three groups of animals of at least four animals in each group. One group of nonsensitized, naive animals was used as a negative control and received vehicle alone (consisting of 0.5% hydroxypropylmethylcellulose/0.2% Tween 80 in water) per os at the time of challenge. As positive controls, one group of sensitized animals received vehicle alone per os at the time of KLH challenge. A third group consisted of sensitized animals that received compound suspended in vehicle per os at the time of KLH challenge.
For histologic analysis, representative skin specimens were fixed in 10% phosphate-buffered formalin, processed by routine histological techniques, cut at a thickness of […], and sections stained with hematoxylin and eosin.

Compound | IC50 [2] [nM] | inhibition at 10 µM [1] [%] | further results
Nc1c[nH]nc1O [Example 9] | 1650 |  | 
Nc1c(-c2ccccc2)n[nH]c1O [Example 4] | 730 | 58 to 61 | 
Nc1c(-c2ccncc2)[nH][nH]c1=O [Example 3] |  | 5 to 49 | inhibition at 10 µM [2]: 95%
Nc1c(C2CCCCC2)[nH][nH]c1=O [Example 1, 4-Amino 5-Cyclohexyl-3-Pyrazolone] | 1270 | 33 to 70 | statistical significance of inhibition of T cell recruitment in rat DHR ([3]; 15 mg/kg per os at the time of antigen challenge): statistically significant inhibitory effect; inhibition of recruitment of 111In-labeled rat T cells to skin DHR sites ([3]; once per os at the time of antigen challenge, various doses (FIG. 3)): inhibited the recruitment of ^III In-labeled rat T cells to skin DHR sites in a dose-dependent fashion; inflammatory activity of skin sites (histology) [4]: attenuated in inflammatory activity; mononuclear cells infiltration in deep dermis (histology) [4]: reduced mononuclear cells infiltration in deep dermis
Cc1[nH][nH]c(=O)c1N [Example 10] |  | 25 to 27 | 
Cn1[nH]c(=O)c(N)c1-c1ccccc1 [Example 5] |  | -23 to 48 | inhibition at 10 µM [2]: 90%
Oc1[nH]nc2c1NCCC2 [Example 37] | 5640 |  | 

Now from value to compound, other results behind:

IC50 [2] [nM] | Compound | inhibition at 10 µM [1] [%] | further results
6240 | NC(=O)c1[nH]n(-c2ccc(Cl)cc2Cl)c(=O)c1N [Example 19] |  | IC50 ([1]; unit inferred, read-out: Inhibition of MCP-1 mediated chemotaxis of CD3-Blast, IC50): 480 nM
1490 | COc1ccc(-c2[nH]nc(O)c2N)cc1 [Example 6] |  | 
2270 | Cc1c(N)c(=O)n(-c2ccccc2)n1C [Example 13] |  | 
